Test results as given in patent publication EP0297435A2, “Aminopropanol derivatives of 3-(3'-hydroxyphenyl)-1-propanone, process for their preparation and medicines containing these compounds” (Helopharm W. Petrik GmbH & Co.KG., priority 1987, dated 1989).

What was measured:
[1] = system: Purkinje-Fasern aus Hundeherzen; assay: Electrophysiological studies on Purkinje fibres from dog hearts (Vmax); assay type: cell-based, Hund; settings: for C20 Vmax / IC20: Purkinje-Fasern aus Hundeherzen; for Prematurity Faktor Vmax: Vorzeitigkeitsindex, activity on premature extrasystoles; for Rate-Faktor von Vmax: specifically stronger activity at higher frequencies; for IC20: read-out: C20 Vmax
Source text: Die antiarrhythmische Wirksamkeit der erfindungsgemäßen Verbindungen wurde sowohl anhand von elektrophysiologischen Studien an Purkinje-Fasern aus Hundeherzen sowie mit Hilfe von Ouabaininduzierten ventrikulären Tachykardien bei Hunden bestimmt. […]
Als zusätzliches Kriterium wurde der Vorzeitigkeitsindex (Prematurity-Faktor) bestimmt, der die erwünschte Wirksamkeit der erfindungsgemäßen Verbindungen bei vorzeitigen Extrasystolen charakterisiert.

[2] = system: Meerschweinchen-Papillarmuskel; assay: Effect on contraction force of the heart, guinea pig papillary muscle; assay type: cell-based; settings: contraction force (negative inotropy); for IC20: read-out: C20 CF
Source text: Die Wirkung auf die Kontraktionskraft des Herzens wurde am Meerschweinchen-Papillarmuskel untersucht. Hämodynamische Studien wurden bei gesunden, wie auch akut infarzierten Hunden durchgeführt.

[3] = Acute toxicity LD50 in rats, i.v.; settings: rat, in vivo, iv; Ratte (i.v.); read-out: LD₅₀
[4] = Acute toxicity LD50 in mice, i.v.; settings: mouse, in vivo, iv; Maus (i.v.); read-out: LD₅₀

| SMILES | C20 Vmax [1] | Prematurity Faktor Vmax [1] | Rate-Faktor von Vmax [1] | C20 CF [2] | IC20 [1] [µM] | IC20 [2] [µM] | LD50 [3] [mg/kg] | LD50 [4] [mg/kg] |
| --- | --- | --- | --- | --- | --- | --- | --- | --- |
| CCCNCC(O)COc1ccccc1C(=O)CCc1ccccc1 (centres unmarked) [A, Propafenon, reference compound] | 3,7 µM | 0,97 | 1,08 | 5,3 µM | – | – | – | – |
| CCCNCC(O)COc1cccc(CCC(=O)c2ccc(OC)cc2)c1.Cl (centres unmarked) [Beispiel 7, 1-(4-Methoxyphenyl)-3-[3′-(2-hydroxy-3-n-propylaminopropoxy)-phenyl]-1-propanon-hydrochlorid] | – | 0,90 | 1,21 | – | 2.9 | 6 | – | – |
| CCC(C)(C)NCC(O)COc1cccc(CCC(=O)c2cc(OC)c(OC)c(OC)c2)c1.Cl (centres unmarked) [Beispiel 8, 1-(3,4,5-Trimethoxyphenyl)-3-[3′-(2-hydroxy-3-tert.-pentylaminopropoxy)-phenyl]-1-propanon-hydrochlorid] | – | – | 5,00 | – | 1.6 | 3 | – | – |
| COc1cc(C(=O)CCc2cccc(OCC(O)CNC(C)C)c2)cc(OC)c1OC.Cl (centres unmarked) [Beispiel 9, 1-(3,4,5-Trimethoxyphenyl)-3-[3′-(2-hydroxy-3-isopropylaminopropoxy)-phenyl]-1-propanon-hydrochlorid] | – | 1,01 | 1,26 | – | 9.1 | 15 | – | – |
| COc1cc(C(=O)CCc2cccc(OCC(O)CNC(C)(C)C)c2)cc(OC)c1OC.Cl (centres unmarked) [Beispiel 10, 1-(3,4,5-Trimethoxyphenyl)-3-[3′-(2-hydroxy-3-tert.-butylaminopropoxy)-phenyl]-1-propanon-hydrochlorid] | – | 0,99 | 1,17 | – | 2.6 | 5 | – | – |
| CCC(C)(C)NCC(O)COc1cccc(CCC(=O)c2c(C)cc(C)cc2C)c1.Cl (centres unmarked) [Beispiel 11, 1-(2,4,6-Trimethylphenyl)-3-[3′-(2-hydroxy-3-tert.-pentylaminopropoxy)-phenyl]-1-propanon-hydrochlorid] | – | 0,95 | 1,15 | – | 3.3 | 10 | – | – |
| Cc1cc(C)c(C(=O)CCc2cccc(OCC(O)CNC(C)(C)C)c2)c(C)c1.Cl (centres unmarked) [Beispiel 14, 1-(2,4,6-Trimethylphenyl)-3-[3′-(2-hydroxy-3-tert.-butylaminopropoxy)-phenyl]-1-propanon-hydrochlorid] | – | 0,95 | 1,47 | – | 11.9 | 20 | – | – |
| Cc1cc(C)c(C(=O)CCc2cccc(OCC(O)CNC(C)C)c2)c(C)c1.Cc1cc(C)c(C(=O)CCc2cccc(OCC(O)CNC(C)C)c2)c(C)c1.O=C(O)C(=O)O (centres unmarked) [Beispiel 15, 1-(2,4,6-Trimethylphenyl)-3-[3′-(2-hydroxy-3-isopropylaminopropoxy)-phenyl]-1-propanon-semi-oxalat] | 1,0 µM | 0,94 | 1,09 | 7,0 µM | – | – | – | – |
| Cc1cc(C)c(CC(=O)Cc2cccc(OCC(O)CNC(C)(C)C)c2)c(C)c1.Cl (centres unmarked) [Beispiel 17, 1-(2,4,6-Trimethylphenyl)-3-[3′-(2-hydroxy-3-tert.-butylaminopropoxy)-phenyl]-propanon-hydrochlorid] | – | 0,99 | 1,12 | – | 1.7 | 15 | – | – |
| CCCNCC(O)COc1cc(CCC(=O)c2ccc(OC)c(OC)c2)ccc1OC.Cl (centres unmarked) [Beispiel 22, 1-(3,4-Dimethoxyphenyl)-3-[3′-(2-hydroxy-3-n-propylaminopropoxy)-4′-methoxyphenyl]-1-propanon-hydrochlorid] | – | 0,99 | 0,97 | – | 3.2 | 7 | – | – |
| COc1ccc(C(=O)CCc2ccc(OC)c(OCC(O)CNC(C)C)c2)cc1OC.Cl (centres unmarked) [Beispiel 23, 1-(3,4-Dimethoxyphenyl)-3-[3′-(2-hydroxy-3-isopropylaminopropoxy)-4′-methoxyphenyl]-1-propanon-hydrochlorid] | – | 1,05 | 5,00 | – | 2.2 | 6 | – | – |
| COc1ccc(C(=O)CCc2ccc(OC)c(OCC(O)CNC(C)(C)C)c2)cc1OC.Cl (centres unmarked) [Beispiel 25, 1-(3,4-Dimethoxyphenyl)-3-[3′-(2-hydroxy-3-tert.-butylaminopropoxy)-4′-methoxyphenyl]-1-propanon-hydrochlorid] | – | 1,01 | 1,21 | – | 2.4 | 6 | – | – |
| CCC(C)(C)NCC(O)COc1cc(CCC(=O)c2ccc(OC)c(OC)c2)ccc1OC.Cl (centres unmarked) [Beispiel 27, 1-(3,4-Dimethoxyphenyl)-3-[3′-(2-hydroxy-3-tert.-pentylaminopropoxy)-4′-methoxyphenyl]-1-propanon-hydrochlorid] | – | 1,05 | 1,25 | – | 3.5 | 15 | – | – |
| CCC(C)(C)NCC(O)COc1cc(CCC(=O)c2cc(OC)c(OC)c(OC)c2)ccc1OC.Cl (centres unmarked) [Beispiel 28, 1-(3,4,5-Trimethoxyphenyl)-3-[3′-(2-hydroxy-3-tert.-pentylaminopropoxy)-4′-methoxyphenyl]-1-propanon-hydrochlorid] | – | 1,01 | – | – | 1.4 | 6 | 11 | 16 |
| COc1ccc(CCC(=O)c2cc(OC)c(OC)c(OC)c2)cc1OCC(O)CNC(C)C.Cl (centres unmarked) [Beispiel 30, 1-(3,4,5-Trimethoxyphenyl)-3-[3′-(2-hydroxy-3-isopropylaminopropoxy)-4′-methoxyphenyl]-1-propanon-hydrochlorid] | – | 1,01 | 1,13 | – | 2.5 | 5 | – | – |
| COc1ccc(CCC(=O)c2cc(OC)c(OC)c(OC)c2)cc1OCC(O)CNC(C)(C)C.Cl (centres unmarked) [Beispiel 31, 1-(3,4,5-Trimethoxyphenyl)-3-[3′-(2-hydroxy-3-tert.-butylaminopropoxy)-4′-methoxyphenyl]-1-propanon-hydrochlorid] | – | 0,97 | 1,15 | – | 1.4 | 5 | 13 | 18 |
| COc1ccc(CCC(=O)c2cc(OC)c(OC)c(OC)c2)cc1OCC(O)CNC1CCCCC1.Cl (centres unmarked) [Beispiel 32, 1-(3,4,5-Trimethoxyphenyl)-3-[3′-(2-hydroxy-3-cyclohexylaminopropoxy)-4′-methoxyphenyl]-1-propanon-hydrochlorid] | – | 1,05 | 1,25 | – | 1.1 | 9 | – | – |
| COc1ccc(CCC(=O)c2ccccc2OC)cc1OCC(O)CNC(C)(C)C.Cl (centres unmarked) [Beispiel 35, 1-(2-Methoxyphenyl)-3-[3′-(2-hydroxy-3-tert.-butylaminopropoxy)-4′-methoxyphenyl]-1-propanon-hydrochlorid] | – | 0,91 | – | – | 3 | 10 | – | – |
| CCCNCC(O)COc1cc(CCC(=O)c2ccc(C)cc2)ccc1OC.Cl (centres unmarked) [Beispiel 37, 1-(4-Methylphenyl)-3-[3′-(2-hydroxy-3-n-propylaminopropoxy)-4′-methoxyphenyl]-1-propanon-hydrochlorid] | – | 0,94 | 1,22 | – | 2.6 | 5 | – | – |
| COc1ccc(CCC(=O)c2ccc(C)cc2)cc1OCC(O)CNC(C)(C)C.Cl (centres unmarked) [Beispiel 39, 1-(4-Methylphenyl)-3-[3′-(2-hydroxy-3-tert.-butylaminopropoxy)-4′-methoxyphenyl]-1-propanon-hydrochlorid] | – | 0,94 | 1,51 | – | 1.2 | 4 | – | – |
| COc1ccc(CCC(=O)c2ccc(C)cc2)cc1OCC(O)CN1CCCCC1.Cl (centres unmarked) [Beispiel 40, 1-(4-Methylphenyl)-3-[3′-(2-hydroxy-3-piperidinopropoxy)-4′-methoxyphenyl]-1-propanon-hydrochlorid] | – | 0,94 | 1,33 | – | 1.3 | 5 | – | – |
| CCCNCC(O)COc1cc(CCC(=O)c2c(C)cc(C)cc2C)ccc1OC.O=C(O)C(=O)O (centres unmarked) [Beispiel 44, 1-(2,4,6-Trimethylphenyl)-3-[3′-(2-hydroxy-3-n-propylaminopropoxy)-4′-methoxyphenyl]-1-propanon-oxalat] | – | 1,10 | 1,03 | – | 1.7 | 14 | – | – |
| CCC(C)(C)NCC(O)COc1cc(CCC(=O)c2ccc3ccccc3c2)ccc1OC.Cl (centres unmarked) [Beispiel 47, 1-(2-Naphthyl)-3-[3′-(2-hydroxy-3-tert.-pentylaminopropoxy)-4′-methoxyphenyl]-1-propanon-hydrochlorid] | – | 1,10 | 1,22 | – | 6.1 | 17 | – | – |
| CCCNCC(O)COc1cc(CCC(=O)c2ccc3ccccc3c2)ccc1OC.Cl (centres unmarked) [Beispiel 48, 1-(2-Napthyl)-3-[3′-(2-hydroxy-3-n-propylaminopropoxy)-4′-methoxyphenyl]-1-propanon-hydrochlorid] | 1,1 µM | 0,90 | 1,43 | 9,0 µM | – | – | – | – |
| COc1ccc(CCC(=O)c2ccc3ccccc3c2)cc1OCC(O)CNC(C)C.Cl (centres unmarked) [Beispiel 49, 1-(2-Naphthyl)-3-[3′-(2-hydroxy-3-isopropylaminopropoxy)-4′-methoxyphenyl]-1-propanon-hydrochlorid] | – | 0,50 | 4,00 | – | 12.1 | 14 | – | – |
